Holding throughout (test): growth of human tumour cells (NCI), 48 h
Assay [1] concerns HOP-92.
Assay [2] deals with CCRF-CEM.
In assay [3] the test system is HCT-15.
For assay [4], the system named is OVCAR-3.
In assay [5] the test system is TK-10.
Assay [6] concerns PC-3.
Assay [7] relates to SK-MEL-28.
Assay [8] deals with OVCAR-4.
Assay [9] relates to SF-295.
Assay [10] concerns CAKI-1.
Assay [11] relates to K562.
The test system of assay [12] is A549.
For assay [13], the system named is OVCAR-5.
Assay [14] concerns SR.
The test system of assay [15] is DU-145.
The subject of assay [16] is UACC-257.
Assay [17] deals with HCT-116.
The subject of assay [18] is MOLT-4.
Assay [19] deals with HT-29.
In assay [20] the test system is Malme-3M.

The structures appear in SMILES notation. Several values for one entry are separate records, joined by “and”; a condition that tells them apart may be missing. Equal values may be shown once.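 In this assay, cells in 96-well plates receive the compound at five concentrations for 48 hours. Endpoints are linearly interpolated between the surrounding concentrations. The concentration for 50% growth inhibition is given as GI50.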 Activity calls are given as the source filed them. No stated cut-off is given here; in the data, active = GI50 up to about 1.1 µM and inactive = higher.

On to `O=C(O)CC1OCC=C2CN3CCC45c6ccccc6NC4C1C2CC35` (centres undefined), for which the GI50 in assay [1] was > 100 µM (inactive); in [2], > 100 µM (inactive); in [3], over 100 µM; in [4] it was > 100 µM (inactive); in assay [5], > 100 µM (inactive); in assay [6] it was > 100 µM (inactive). Besides, the GI50 in assay [7], in assay [8], in [9], in assay [10], in [11] and in assay [12] was > 100 µM (inactive) throughout. The GI50 in [13], in [14], in assay [15], in assay [16], in assay [17] and in [18] was > 100 µM (inactive) throughout. For the same compound, in assay [19], the GI50 is > 100 µM (inactive).
Regarding `CCC1OC(=O)CC(O)C(C)C(OC2OC(C)CC(N(C)C)C2O)C(CC=O)CC(C)C(=O)/C=C/C2(C)OC2C1C` (centres undefined), the GI50 in assay [1] was 27.9 µM (inactive); in assay [2], 4.91 µM (inactive); in [3] it was 18.3 µM; in assay [4] it was 22.8 µM (inactive); in assay [20] it was 21.7 µM (inactive); in [6], 26.6 µM (inactive). The GI50 in assay [7] was 21.4 µM (inactive); in assay [9], 29 µM (inactive); in assay [10] it was 31.5 µM (inactive); in [11], 6.76 µM (inactive); in assay [12], 49.4 µM (inactive); in assay [13] it was 41.3 µM (inactive). Also, the GI50 in assay [14] was 13.9 µM (inactive); in assay [15] it was 23.2 µM (inactive); in assay [16], > 100 µM (inactive); in [17], 15.8 µM (inactive); in [18], 16.5 µM (inactive); in [19], 17.9 µM (inactive).
Take `CC1(C)OC(CP(c2ccccc2)c2ccccc2)C(CP(c2ccccc2)c2ccccc2)O1` (centres undefined): the GI50 in assay [1] was 2.36 µM (inactive); in assay [2], 0.794 µM (active); in assay [3], 3.22 µM; in assay [4] it was 0.0535 µM (active); in [5], > 19.8 µM (inactive); in assay [20], 1.99 µM (inactive). The GI50 was 0.0548 µM (active) in assay [6]; > 28.2 µM (inactive) in [7]; 0.986 µM (active) in assay [8]; 0.544 µM (active) in assay [9]; 2.92 µM (inactive) in assay [10]; 0.372 µM (active) in assay [11]. The GI50 was 0.27 µM (active) in assay [12]; 2.25 µM (inactive) in assay [13]; 0.552 µM (active) in assay [14]; 2.23 µM (inactive) in assay [15]; 0.165 µM (active) in [17]; 0.254 µM (active) in assay [18]. In assay [19], the GI50 is 0.656 µM (active).
On to `CCN(CC)c1ccc(NC(=S)NN(C)C)cc1`, for which the GI50 in assay [1] was > 10 µM (inactive); in assay [2] it was > 10 µM (inactive); in assay [3], over 10 µM; in assay [4], > 10 µM (inactive); in assay [5], > 10 µM (inactive); in assay [20], > 10 µM (inactive). Also, the GI50 in [6], in [7], in [8], in assay [9], in [10] and in assay [11] was > 10 µM (inactive) each time. For the same compound, the GI50 in assay [12], in assay [14], in assay [15], in assay [16], in [17] and in assay [18] was > 10 µM (inactive) each time. In addition, the GI50 in [19] was > 10 µM (inactive).
`Cc1cn(C2CCC(/C=N\O)O2)c(=O)[nH]c1=O` (centres undefined): the GI50 is > 100 µM (inactive) in [1]; > 100 µM (inactive) in assay [2]; over 100 µM in assay [3]; > 100 µM (inactive) in assay [4]; > 100 µM (inactive) in [6]; > 100 µM (inactive) in assay [7]. The GI50 in assay [8], in [9], in assay [10], in [11], in [12] and in assay [13] was > 100 µM (inactive) in each case. For the same compound, the GI50 in [14], in assay [15], in [16], in assay [17], in [18] and in [19] was > 100 µM (inactive) throughout.
Regarding `COc1ccc(C2c3cc4c(cc3OC(NNc3ccccc3)C2C)OCO4)cc1` (centres undefined), the GI50 in assay [1] is 19.5 µM (inactive); in [2], 4.01 µM (inactive); in assay [3], 1.05 µM; in assay [4] it was 4.82 µM (inactive); in [5] it was 8.97 µM (inactive); in [20] it was 8.47 µM (inactive). In addition, the GI50 in assay [6] was 4.8 µM (inactive); in assay [7], 26.4 µM (inactive); in assay [9] it was 2.08 µM (inactive); in assay [10], 5.89 µM (inactive); in assay [11], 1.7 µM (inactive); in [12], 4.09 µM (inactive). Besides, the GI50 in assay [13] was 7.33 µM (inactive); in assay [14] it was 1.71 µM (inactive); in [15] it was 5.52 µM (inactive); in assay [16] it was 5.79 µM (inactive); in [17] it was 4.44 µM (inactive); in assay [18], 3.15 µM (inactive). The GI50 in assay [19] was 11.6 µM (inactive).
As to `CC(=O)[C@@H](C)C(=O)N1C(=O)OC[C@@]12[C@@H]1CC[C@@H](C1)C2(C)C`, the GI50 was > 100 µM (inactive) in [1]; > 100 µM (inactive) in assay [2]; over 100 µM in assay [3]; > 100 µM (inactive) in assay [5]; > 100 µM (inactive) in [20]; > 100 µM (inactive) in [6]. Besides, the GI50 in [7] is > 100 µM (inactive); in [8] it was > 100 µM (inactive); in [9], > 100 µM (inactive); in assay [10], 71.8 µM (inactive); in [11] it was > 100 µM (inactive); in assay [12], > 100 µM (inactive). The GI50 is > 100 µM (inactive) in assay [13]; 78.7 µM (inactive) in [14]; > 100 µM (inactive) in assay [15]; > 100 µM (inactive) in [16]; > 100 µM (inactive) in [17]; > 100 µM (inactive) in assay [19].
Turning to `CCOC(=O)c1c(-c2ccccc2)nc2ccccc2c1O`, the GI50 in [1] is > 100 µM (inactive); in assay [2], > 10 µM (inactive); in [3] it was over 100 µM; in assay [5], > 100 µM (inactive); in assay [20], > 100 µM (inactive); in [6], > 100 µM (inactive). For the same compound, the GI50 in assay [7], in assay [8], in [9], in assay [10], in assay [11] and in [12] was > 100 µM (inactive) in each case. Further, the GI50 in [13], in assay [14], in assay [15], in [16], in assay [17] and in [18] was > 100 µM (inactive) in each case. Moreover, the GI50 in assay [19] is > 100 µM (inactive).
On to `COC(=O)C1(C(=O)OC)N=C(C)OC1C(C)C` (centres undefined), for which the GI50 in assay [1] is > 100 µM (inactive); in [2], > 100 µM (inactive); in assay [3] it was over 100 µM; in [4], > 100 µM (inactive); in assay [5], > 100 µM (inactive); in [6], > 100 µM (inactive). For the same compound, the GI50 in assay [7], in [8], in [9], in assay [10], in assay [11] and in [12] was > 100 µM (inactive) in each case. In addition, the GI50 in assay [13], in assay [14], in assay [15], in assay [16], in assay [17] and in [18] was > 100 µM (inactive) in each case.
Regarding `COc1ccc(-c2c(C#N)c(N)n(C3OC(CO)C(O)C(O)C3O)c(=S)c2C#N)cc1` (centres undefined), the GI50 in assay [1] was 20.2 µM (inactive); in assay [2], > 100 µM (inactive); in assay [3] it was over 100 µM; in [4] it was > 100 µM (inactive) and 97.7 µM (inactive); in assay [5], > 100 µM (inactive); in assay [20] it was > 100 µM (inactive). For the same compound, the GI50 in assay [6] is > 100 µM (inactive) and 99.1 µM (inactive); in assay [7], > 100 µM (inactive); in assay [8], > 100 µM (inactive) and 67.9 µM (inactive); in assay [10] it was > 100 µM (inactive); in [11], > 100 µM (inactive); in assay [12], > 100 µM (inactive). Moreover, the GI50 was > 100 µM (inactive) in assay [13]; > 100 µM (inactive) in assay [14]; > 100 µM (inactive) in assay [15]; > 100 µM (inactive) in [16]; > 100 µM (inactive) in assay [17]; > 100 µM (inactive) and 68.2 µM (inactive) in assay [18]. Moreover, the GI50 in assay [19] was > 100 µM (inactive).
Take `COc1cccc(-c2cc(=O)c3ccc(C)nc3[nH]2)c1`: the GI50 in assay [1] is 0.0401 µM (active); in assay [2] it was 0.0459 µM (active); in assay [3] it was 0.0402 µM; in assay [4] it was 0.0219 µM (active); in assay [5], > 100 µM (inactive); in assay [20] it was 0.0403 µM (active). Moreover, the GI50 in [6] was 0.0361 µM (active); in [8], 3.78 µM (inactive); in [9] it was 0.0371 µM (active); in assay [10], 0.0458 µM (active); in assay [11] it was 0.0232 µM (active); in [12], 0.0728 µM (active). Also, the GI50 in assay [13] is 0.239 µM (active); in assay [14] it was 0.016 µM (active); in assay [15], 0.0824 µM (active); in [17] it was 0.0448 µM (active); in [18], 0.0741 µM (active); in assay [19], 0.0331 µM (active).

These data come from ChEMBL document CHEMBL1201862, “PubChem BioAssay data set” (2004).
